# Reference: PubChem BioAssay (NCI)
#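 Where inhibition never reached the appropriate level, the endpoint shown equals the highest concentration tested. Otherwise, values were interpolated linearly from a five-concentration, 48-hour dose response in 96-well plates. The concentration for 50% growth inhibition is given as GI50. The concentration for full growth arrest is given as TGI.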
# How the values were obtained:
# Experiment in all cases: NCI anticancer screen, dose series, 48 h
# MOLT-4 leukemia = test system: MOLT-4 leukemia
# NCI-H226 lung = test system: NCI-H226 lung
# NCI-H23 lung = test system: NCI-H23 lung
# NCI-H460 lung = test system: NCI-H460 lung
# NCI-H522 lung = test system: NCI-H522 lung
# NCI/ADR-RES ovarian = test system: NCI/ADR-RES ovarian
# OVCAR-3 ovarian = test system: OVCAR-3 ovarian
# OVCAR-4 ovarian = test system: OVCAR-4 ovarian
# OVCAR-8 ovarian = test system: OVCAR-8 ovarian
# RPMI-8226 leukemia = test system: RPMI-8226 leukemia
# SF-268 CNS = test system: SF-268 CNS
# SF-295 CNS = test system: SF-295 CNS
# SF-539 CNS = test system: SF-539 CNS
# SK-MEL-2 melanoma = test system: SK-MEL-2 melanoma
# SK-MEL-28 melanoma = test system: SK-MEL-28 melanoma
# SK-MEL-5 melanoma = test system: SK-MEL-5 melanoma
# SK-OV-3 ovarian = test system: SK-OV-3 ovarian
# SN12C renal = test system: SN12C renal
# SNB-19 CNS = test system: SNB-19 CNS
# SNB-75 CNS = test system: SNB-75 CNS
# SR leukemia = test system: SR leukemia
# SW-620 colon = test system: SW-620 colon
# T-47D breast = test system: T-47D breast
# TK-10 renal = test system: TK-10 renal
# U251 CNS = test system: U251 CNS
# UACC-257 melanoma = test system: UACC-257 melanoma
# UACC-62 melanoma = test system: UACC-62 melanoma
# UO-31 renal = test system: UO-31 renal
smiles,measurement,setting,value
O=C(/C=C/c1cccc(O)c1)c1cccc(-n2cc(-c3ccc(Cl)cc3)[nH]c2=O)c1,TGI,MOLT-4 leukemia,6.31 µM
same,GI50,NCI-H226 lung,2310 nM
same,TGI,NCI-H226 lung,5.5 µM
same,GI50,NCI-H23 lung,2780 nM
same,TGI,NCI-H23 lung,10.6 µM
same,GI50,NCI-H460 lung,2410 nM
same,TGI,NCI-H460 lung,5.99 µM
same,GI50,NCI-H522 lung,1650 nM
same,TGI,NCI-H522 lung,4.36 µM
same,GI50,NCI/ADR-RES ovarian,2200 nM
same,TGI,NCI/ADR-RES ovarian,5.96 µM
same,GI50,OVCAR-3 ovarian,1560 nM
same,TGI,OVCAR-3 ovarian,3.44 µM
same,GI50,OVCAR-4 ovarian,2210 nM
same,TGI,OVCAR-4 ovarian,8.96 µM
same,GI50,OVCAR-8 ovarian,998 nM
same,TGI,OVCAR-8 ovarian,> 100 µM
same,GI50,RPMI-8226 leukemia,1550 nM
same,TGI,RPMI-8226 leukemia,4.64 µM
same,GI50,SF-268 CNS,1780 nM
same,TGI,SF-268 CNS,3.94 µM
same,GI50,SF-295 CNS,1790 nM
same,TGI,SF-295 CNS,3.88 µM
same,GI50,SF-539 CNS,1680 nM
same,TGI,SF-539 CNS,3.22 µM
same,GI50,SK-MEL-2 melanoma,2070 nM
same,TGI,SK-MEL-2 melanoma,4.67 µM
same,GI50,SK-MEL-28 melanoma,3.64 µM
same,TGI,SK-MEL-28 melanoma,15.9 µM
same,GI50,SK-MEL-5 melanoma,1530 nM
same,TGI,SK-MEL-5 melanoma,3.36 µM
same,GI50,SK-OV-3 ovarian,4.22 µM
same,TGI,SK-OV-3 ovarian,17.2 µM
same,GI50,SN12C renal,1950 nM
same,TGI,SN12C renal,5.93 µM
same,GI50,SNB-19 CNS,1920 nM
same,TGI,SNB-19 CNS,4.37 µM
same,GI50,SNB-75 CNS,1460 nM
same,TGI,SNB-75 CNS,3.04 µM
same,GI50,SR leukemia,217 nM
same,TGI,SR leukemia,1070 nM
same,GI50,SW-620 colon,1620 nM
same,TGI,SW-620 colon,4.74 µM
same,GI50,T-47D breast,1920 nM
same,TGI,T-47D breast,6.03 µM
same,GI50,TK-10 renal,2830 nM
same,TGI,TK-10 renal,9.13 µM
same,GI50,U251 CNS,588 nM
same,TGI,U251 CNS,2150 nM
same,GI50,UACC-257 melanoma,4.07 µM
same,TGI,UACC-257 melanoma,26.3 µM
same,GI50,UACC-62 melanoma,1850 nM
same,TGI,UACC-62 melanoma,4.27 µM
same,GI50,UO-31 renal,558 nM
same,TGI,UO-31 renal,3.46 µM
